Consider 10 compounds from US20040014814A1, “Compositions and methods for delaying preventing rejuvenating or reversing senescence in cells” (priority 2000, published 2004).

Series [1] concerns MRC-5 cells. The experiment in a line: Effect of carnosine derivatives on cell growth / toxicity in MRC-5 cell cultures. Details: key to Effect on cell growth (score): (0) Toxic to cell growth; (10) Confluent cell growth. It counts as cell-based, human. Conditions: for Effect on cell growth (score): MRC-5 cells, scale 0 toxic to 10 confluent; for Cell Growth: summary grade. As to the method:
(§1) MRC -5 cells (fetal lung fibroblasts) were grown in Dulbecco's modification of Eagles' minimum essential medium (DMEM Gibco BRL Cat. No. 12800-017) containing 0.45% glucose, or MEM (Gibco BRL Cat. No. 612800-017) containing 0.1% glucose. Both media contained 10% fetal calf scrum (TRACE Biosciences Cat. No. 15-010-0500V) and Penicillin/Streptomycin 5000 IU, 5000 μg/ml (TRACE Biosciences Cat. No. 21-140-0100V). Cells were grown in […] flasks or in dishes (35 mm or 60 mm, Nunc) at 37° C. with 5% CO2. Cells were harvested with trypsin (TRACE Biosciences Cat. No. 21-163-0100V) and counted with a model ZF6 Coulter Counter. Cells were split in ratios of 1:2 or 1:4. Population doublings (PDs) were calculated from the ratio of the initial number of cells plated to the yield of cells after a period of time. This provides an accurate measure of cell growth, with the split ratios 1:2 and 1:4 corresponding to one and two passages respectively, which are broadly equivalent to population doublings. The media was changed every 5 days or when cells became confluent.
MRC-5 cells were used to observe the toxicity of a series of derivatives of carnosine on cell growth. Cell cultures were grown in DMEM media with 10% fetal calf serum and supplemented with the following carnosine analogues: carnosine ethyl ester, carnosine iso-propyl ester, carnosine n-butyl ester, carnosine n-hexyl ester, N-propyl carnosine, N-hexanoyl carnosine, N-trimethyl acetyl carnosine, N-acetyl carnosine methyl ester, N-acetyl carnosine ethyl ester and N-acetyl carnosine, […] Cells were also grown in DMEM supplemented with carnosine at 20 mM. […] Even at lower concentrations cell morphology was that of cells that have reached senescence i.e. broad flat cells with long process reaching out to other cells. Cell numbers were less than in the control flasks. […] As shown in FIG. 1 Acetyl-carnosine achieved a lifespan 5 PDs greater than the control and 6.7 PDs greater than carnosine over a 43 day period. […] In the early phase of the experiment growth rates were markedly greater than with the other compounds (FIG. 1).

Series [2] relates to MRC-5 cells. The experiment in a line: Lifespan (population doublings) of MRC-5 cells in culture. It counts as cell-based, human. Also on record: key to Lifespan extension: 0 = zero effect; 10 = maximum effect. The following applies: for Lifespan of MRC-5 cells in culture, Population Doublings (PD): commenced at passage 55; for Lifespan extension: summary grade. Here is the method:
Cultures were split in a 1:4 ratio when flasks were approximately 70-80% confluent.
as §1
MRC-5 cells were used to observe the toxicity of a series of derivatives of carnosine on cell growth. Cell cultures were grown in DMEM media with 10% fetal calf serum and supplemented with the following carnosine analogues: carnosine ethyl ester, carnosine iso-propyl ester, carnosine n-butyl ester, carnosine n-hexyl ester, N-propyl carnosine, N-hexanoyl carnosine, N-trimethyl acetyl carnosine, N-acetyl carnosine methyl ester, N-acetyl carnosine ethyl ester and N-acetyl carnosine, at concentrations ranging between 1 mM to 20 mM. Cells were also grown in DMEM supplemented with carnosine at 20 mM. […] Even at lower concentrations cell morphology was that of cells that have reached senescence i.e. broad flat cells with long process reaching out to other cells. Cell numbers were less than in the control flasks. […] As shown in FIG. 1 Acetyl-carnosine achieved a lifespan 5 PDs greater than the control and 6.7 PDs greater than carnosine over a 43 day period. […] In the early phase of the experiment growth rates were markedly greater than with the other compounds (FIG. 1).
In fact all populations of MRC-5 cells grown in DMEM supplemented with acetyl-carnosine preserved a younger phenotype for much longer than cells grown in DMEM supplemented with carnosine or its analogues.
Under control conditions the range was 57.3-64.5 PDs (n=5). With the addition of carnosine (20mM) to the medium the range was 61.8-63.7 PDs (n=5) with an average increase of 1.4 PDs which represents a 3 fold increase in cell number. However, when acetyl-carnosine (5 mM) was added to the medium, the range was 62.3-70.3 PDs (n=5) with an average increase of 5 PDs compared with the controls. This represents a 32 fold increase in cell number.

Another series relates to human blood peptidases. The series can be described thus: Stability in human blood serum / attack by human blood peptidases. The following applies: human blood serum. The series is classed as in vitro ADME.
Series [3] relates to UV-Induced Immuno-suppression. Details: key: 0 = zero effect; 10 = maximum effect. The following applies: footnote (3) Australian provisional PQ 5150; cited from earlier work.
In a further series the test system is corneal epithelial cells. The experiment in a line: Uptake of radio-labeled (3H) compounds in fresh bovine eyes (corneal epithelium into aqueous humour). It counts as in vitro ADME. Conditions: after 4 hours. As to the method:
Radio-labeled (3H) carnosine and acetyl-carnosine were assayed for their rate of uptake using fresh bovine eyes and MRC-5 fibroblast cultures. For bovine eyes small cylinders (radius 3.5mm and height 8mm) placed on top of the eye formed a fix seal with the corneal epithelial cells. 200 microlitres of the radio-labeled compounds in 5mM unlabeled compound in phosphate buffered saline were instilled onto the eye and at different time points 600 μl of aqueous humour was aspirated using a 25 gauge needle for counting in the scintillation counter.
The uptake experiments were repeated using fresh bovine eyes.

For series [4], the system named is MRC-5 cells. Conditions: carnosine supplemented media; cited from earlier work.
The subject of series [5] is MRC-5 cells. Details: Cell and eye uptake assay: key to the marks not given beside the values.
A further series concerns senescent MRC-5 cells. Conditions: 20 mM; PCT/AU91/00541; cited from earlier work.
Series [6] deals with MRC-5 cells. The experiment in a line: Uptake of radio-labeled (3H) compounds by MRC-5 fibroblast cells. The following applies: MRC-5 cells, after 48 hours.
Method: For MRC-5 cells, (3H)—carnosine and acetyl carnosine were added to the medium of near confluent 60mm culture dishes. At different time points cells were washed three times with phosphate buffered saline, cells harvested and cell-associated radioactivity determined using Packard Starscint scintillation fluid.
The rate of uptake of carnosine and acetyl-carnosine by MRC-5 cells was studied using radio-labeled tritiated (3H) carnosine and acetyl-carnosine compounds. The uptake was measured in MRC-5 cells at passage 28 over a 48 hour period (FIG. 3A).
The nature of series [7]: Fate of compound after cellular uptake. The series is classed as cell-based. Conditions: compared with acetyl-carnosine. As to the method:
Experiments were conducted to determine the fate of acetyl-carnosine and carnosine after cellular uptake. […] A slower metabolism and incorporation into other proteins may be one reason for acetyl-carnosine having higher effective intracellular concentrations compared with carnosine despite its lower overall uptake.

Turning to `COC(=O)C(Cc1cnc[nH]1)NC(=O)CCNC(C)=O` (centres unmarked) [N-acetyl carnosine methyl ester], the “Effect on cell growth (score)” value in the series on MRC-5 cells [1] (0.5 mM) was 6; in the series on MRC-5 cells [1] (1 mM) it was 6; in the series on MRC-5 cells [1] (2 mM), 5; with MRC-5 cells [1] (5 mM), 5; in the series with MRC-5 cells [1] (10 mM) it was 5; with MRC-5 cells [1] (20 mM), 0.

For `CCCCCCOC(=O)[C@H](Cc1c[nH]cn1)NC(=O)CCN` [carnosine n-hexyl ester], the “Effect on cell growth (score)” value in the series on MRC-5 cells [1] (2 mM) turned out to be 3; in the series with MRC-5 cells [1] (5 mM), 1; with MRC-5 cells [1] (10 mM), 0; in the series with MRC-5 cells [1] (20 mM) it was 0. Besides, in the series with MRC-5 cells [1], the “Cell Growth” value is recorded as “TOXIC”.

As to `CCCCCC(=O)NCCC(=O)N[C@@H](Cc1c[nH]cn1)C(=O)O` [N-hexanoyl carnosine], the “Lifespan of MRC-5 cells in culture, Population Doublings (PD)” value (“Lifespan of MRC-5 cells in culture” for short) in the series on MRC-5 cells [2] (5 mM) worked out at 10.8 PD. In the series on MRC-5 cells [2], this compound registered a Lifespan extension of 0. Moreover, the “Effect on cell growth (score)” value amounted to 6 in the series with MRC-5 cells [1] (0.5 mM); 6 in the series on MRC-5 cells [1] (1 mM); 5 with MRC-5 cells [1] (2 mM); 4 in the series with MRC-5 cells [1] (5 mM); 3 in the series on MRC-5 cells [1] (10 mM); 3 with MRC-5 cells [1] (20 mM).

With `CCCCOC(=O)[C@@H](Cc1cnc[nH]1)NC(=O)CCN` [Carnosine n-butyl ester, carnosine n-butyl ester], the “Effect on cell growth (score)” value in the series with MRC-5 cells [1] (2 mM) is 5; in the series with MRC-5 cells [1] (5 mM), 5; in the series on MRC-5 cells [1] (10 mM), 2; in the series on MRC-5 cells [1] (20 mM), 0. The “Cell Growth” value in the series on MRC-5 cells [1] is “TOXIC”.

With `NCCC(=O)N[C@@H](Cc1cnc[nH]1)C(=O)O` [Carnosine, β-alanyl-L-histidine, reference compound], the “Stability in human blood serum” value with human blood peptidases is “rapidly destroyed”. Moreover, the “Range of lifespans of populations of MRC-5 cells” value in the series with MRC-5 cells [2] (20 mM in medium, n=5) is listed as 61.8-63.7 PDs. For the same compound, the “Lifespan of MRC-5 cells in culture” value in the series on MRC-5 cells [2] (20 mM) is listed as 8.5 PD. Further, the “Average increase in lifespan compared with controls” value with MRC-5 cells [2] (20 mM, n=5) is listed as 1.4 PDs. Also, the “Increase in cell number” value with MRC-5 cells [2] (20 mM, worked out from the PD increase) was found to be 3 fold. Further, the “Increase in cell mass” value with MRC-5 cells [2] (cells exposed to supplemented media) came out at 3 fold. Besides, the “Effect on cell growth (score)” value in the series on MRC-5 cells [1] (5 mM) is 5; in the series with MRC-5 cells [1] (10 mM), 6; with MRC-5 cells [1] (20 mM), 7. Also, the “UV immuno suppression: post irradiation assay (3)” value in series [3] is recorded as 0. In the series with corneal epithelial cells, the “Uptake of (3H) compound into aqueous humour” value was 1.3%. Further, the “Uptake relative to acetyl-carnosine” value is 2 times with corneal epithelial cells and 2 times with MRC-5 cells [5] (human, 48 h). Also, in the series on MRC-5 cells [4], the “Increase in cell mass reported by McFarland & Holliday” value was 12 fold. Besides, the “Cell and eye uptake assay” value with MRC-5 cells [5] was “++++”. For the same compound, the “Uptake of (3H) compound by MRC-5 cells” value with MRC-5 cells [5] (human, 48 h) is recorded as 0.32%. Moreover, the “Effect on senescent MRC-5 cells transferred to supplemented medium” value in the series with senescent MRC-5 cells is on record as “rejuvenated”. Moreover, in the series with MRC-5 cells [6], the “Number of cells growing in supplemented media” value is recorded as 2.4×10^6. The “Incorporation of label into higher molecular weight proteins after uptake” value in series [7] is “more rapidly incorporated into higher molecular weight proteins”.

In the case of N-propyl carnosine, in the series on MRC-5 cells [2] (5 mM), the “Lifespan of MRC-5 cells in culture” value came to 11.0 PD. In the series on MRC-5 cells [2], this compound gave a Lifespan extension of 0. For the same compound, the “Effect on cell growth (score)” value is recorded as 6 in the series with MRC-5 cells [1] (0.5 mM); 6 in the series with MRC-5 cells [1] (1 mM); 5 with MRC-5 cells [1] (2 mM); 4 in the series with MRC-5 cells [1] (5 mM); 3 in the series with MRC-5 cells [1] (10 mM); 2 in the series with MRC-5 cells [1] (20 mM).

`CCOC(=O)[C@H](Cc1cnc[nH]1)NC(=O)CCN` [Carnosine ethyl ester, carnosine ethyl ester]: the “Effect on cell growth (score)” value in the series with MRC-5 cells [1] (2 mM) was found to be 5; in the series with MRC-5 cells [1] (5 mM), 5; in the series with MRC-5 cells [1] (10 mM), 4; in the series with MRC-5 cells [1] (20 mM), 3.

Turning to `CC(C)(C)C(=O)NCCC(=O)NC(Cc1cnc[nH]1)C(=O)O` (centres unmarked) [N-trimethyl acetyl carnosine], the “Lifespan of MRC-5 cells in culture” value in the series on MRC-5 cells [2] (5 mM) is given as 9.4 PD. This compound also had a Lifespan extension with MRC-5 cells [2] of 0. Further, the “Effect on cell growth (score)” value with MRC-5 cells [1] (0.5 mM) came out at 6; with MRC-5 cells [1] (1 mM) it was 6; in the series on MRC-5 cells [1] (2 mM) it was 5; with MRC-5 cells [1] (5 mM), 4; in the series on MRC-5 cells [1] (10 mM) it was 3; with MRC-5 cells [1] (20 mM), 3.

Consider `CCOC(=O)C(Cc1cnc[nH]1)NC(=O)CCNC(C)=O` (centres unmarked) [N-acetyl carnosine ethyl ester], for which the “Effect on cell growth (score)” value was 6 with MRC-5 cells [1] (0.5 mM); 5 in the series with MRC-5 cells [1] (1 mM); 4 in the series with MRC-5 cells [1] (2 mM); 4 in the series on MRC-5 cells [1] (5 mM); 2 with MRC-5 cells [1] (10 mM); 0 with MRC-5 cells [1] (20 mM).

With `CC(C)OC(=O)[C@H](Cc1cnc[nH]1)NC(=O)CCN` [Carnosine iso-propyl ester, carnosine iso-propyl ester], the “Effect on cell growth (score)” value was determined as 2 with MRC-5 cells [1] (2 mM), 0 in the series on MRC-5 cells [1] (5 mM), 0 in the series with MRC-5 cells [1] (10 mM) and 0 in the series on MRC-5 cells [1] (20 mM). The “Cell Growth” value in the series with MRC-5 cells [1] is “TOXIC”.
